Data from ChEMBL document CHEMBL1909294, “Translating clinical findings into knowledge in drug safety evaluation--drug induced liver injury prediction system (DILIps)” (PLoS Comput Biol, 2011).

Columns and labels:
[1] = test system: Hepatotoxicity;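 as to HepSE Combined Scores: combined hepatic side effect score as listed in the training data of the Drug Induced Liver Injury Prediction System (DILIps)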;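 as to HepSE cholelithiasis: hepatic side effect score for cholelithiasis, drawn from the DILIps training data for predicting drug-induced liver injury; call rule not given here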;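 as to HepSE elevated liver function tests: hepatic side effect score for raised liver function tests, as recorded in the DILIps training set used for predicting drug-induced liver injury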;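 as to HepSE hepatic necrosis: score of hepatic side effects for hepatic necrosis, drawn from the training data of DILIps, a prediction system for drug-induced liver injury; call rule not given here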;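 as to HepSE hepatomegaly: hepatic side effect score for hepatomegaly, taken from the training set of the DILIps drug-induced liver injury prediction system; call rule not given here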;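 as to HepSE liver function tests abnormal: hepatic side effect score taken from the DILIps (drug-induced liver injury prediction system) training data, here covering abnormal liver function test findings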
[2] = test system: Hepatotoxicity; remark: listed apart in the source;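 as to HepSE Combined Scores: combined hepatic side effect score as listed in the training data of the Drug Induced Liver Injury Prediction System (DILIps)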;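 as to HepSE cholelithiasis: hepatic side effect score for cholelithiasis, drawn from the DILIps training data for predicting drug-induced liver injury; call rule not given here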;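 as to HepSE elevated liver function tests: hepatic side effect score for raised liver function tests, as recorded in the DILIps training set used for predicting drug-induced liver injury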;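 as to HepSE hepatic necrosis: score of hepatic side effects for hepatic necrosis, drawn from the training data of DILIps, a prediction system for drug-induced liver injury; call rule not given here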;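 as to HepSE hepatomegaly: hepatic side effect score for hepatomegaly, taken from the training set of the DILIps drug-induced liver injury prediction system; call rule not given here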;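 as to HepSE liver function tests abnormal: hepatic side effect score taken from the DILIps (drug-induced liver injury prediction system) training data, here covering abnormal liver function test findings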
[3] = test system: Hepatotoxicity; remark: listed apart in the source;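 as to HepSE Combined Scores: combined hepatic side effect score as listed in the training data of the Drug Induced Liver Injury Prediction System (DILIps)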;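 as to HepSE cholelithiasis: hepatic side effect score for cholelithiasis, drawn from the DILIps training data for predicting drug-induced liver injury; call rule not given here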;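 as to HepSE elevated liver function tests: hepatic side effect score for raised liver function tests, as recorded in the DILIps training set used for predicting drug-induced liver injury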;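 as to HepSE hepatomegaly: hepatic side effect score for hepatomegaly, taken from the training set of the DILIps drug-induced liver injury prediction system; call rule not given here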;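 as to HepSE liver function tests abnormal: hepatic side effect score taken from the DILIps (drug-induced liver injury prediction system) training data, here covering abnormal liver function test findings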
[4] = test system: Hepatotoxicity; remark: listed apart in the source;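 as to HepSE Combined Scores: combined hepatic side effect score as listed in the training data of the Drug Induced Liver Injury Prediction System (DILIps)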;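 as to HepSE cholelithiasis: hepatic side effect score for cholelithiasis, drawn from the DILIps training data for predicting drug-induced liver injury; call rule not given here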;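 as to HepSE elevated liver function tests: hepatic side effect score for raised liver function tests, as recorded in the DILIps training set used for predicting drug-induced liver injury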;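 as to HepSE hepatomegaly: hepatic side effect score for hepatomegaly, taken from the training set of the DILIps drug-induced liver injury prediction system; call rule not given here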;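 as to HepSE liver function tests abnormal: hepatic side effect score taken from the DILIps (drug-induced liver injury prediction system) training data, here covering abnormal liver function test findings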
[5] = test system: Hepatotoxicity; remark: listed apart in the source
[6] = test system: Hepatotoxicity; remark: listed apart in the source
[7] = test system: Hepatotoxicity; remark: listed apart in the source
[8] = test system: Hepatotoxicity; remark: listed apart in the source
[9] = test system: Hepatotoxicity; remark: listed apart in the source
[10] = test system: Hepatotoxicity; remark: listed apart in the source
[11] = test system: Hepatotoxicity; remark: listed apart in the source
[12] = test system: Hepatotoxicity; remark: listed apart in the source
[13] = test system: Hepatotoxicity; remark: listed apart in the source
[14] = test system: Hepatotoxicity; remark: listed apart in the source

Structure (SMILES) | HepSE_liver function tests abnormal [1] | HepSE_cholelithiasis [2] | HepSE_hepatomegaly [3] | HepSE_elevated liver function tests [4] | HepSE_Combined Scores [5] | HepSE_hepatic necrosis [6] | HepSE_liver fatty [7] | HepSE_jaundice [8] | HepSE_bilirubinemia [9] | HepSE_cholecystitis [10] | HepSE_cirrhosis [11] | HepSE_hepatic failure [12] | HepSE_liver disease [13] | HepSE_hepatitis [14] | further results
CN(C)c1cc(NC(=O)CNC(C)(C)C)c(O)c2c1C[C@H]1C[C@H]3[C@H](N(C)C)C(O)=C(C(N)=O)C(=O)[C@@]3(O)C(O)=C1C2=O [TIGECYCLINE] | 1 | 0 | 0 | 0 | 4 | 0 | 0 | 1 | 1 | 0 | 0 | 1 | 0 | 0 | 
O=P(O)(O)C(Sc1ccc(Cl)cc1)P(=O)(O)O [TILUDRONIC ACID] | 0 | 0 | 0 | 0 | 0 | 0 | 0 | 0 | 0 | 0 | 0 | 0 | 0 | 0 | 
CC(C)(C)NC[C@H](O)COc1nsnc1N1CCOCC1 [TIMOLOL] | 0 | 0 | 1 | 0 | 1 | 0 | 0 | 0 | 0 | 0 | 0 | 0 | 0 | 0 | 
CCS(=O)(=O)CCn1c([N+](=O)[O-])cnc1C [TINIDAZOLE] | 0 | 0 | 0 | 0 | 0 | 0 | 0 | 0 | 0 | 0 | 0 | 0 | 0 | 0 | 
C[N+]1(C)[C@@H]2C[C@@H](OC(=O)C(O)(c3cccs3)c3cccs3)C[C@H]1[C@@H]1O[C@@H]12 [TIOTROPIUM] | 0 | 0 | 0 | 0 | 0 | 0 | 0 | 0 | 0 | 0 | 0 | 0 | 0 | 0 | 
CCCCS(=O)(=O)N[C@@H](Cc1ccc(OCCCCC2CCNCC2)cc1)C(=O)O [TIROFIBAN] |  |  |  |  |  |  |  |  |  |  |  |  |  |  | HepSE_liver function tests abnormal ([1]; Liver): 0; HepSE_cholelithiasis ([2]; Liver): 0; HepSE_hepatomegaly ([3]; Liver): 0; HepSE_elevated liver function tests ([4]; Liver): 0; HepSE_Combined Scores ([5]; Liver): 0; HepSE_hepatic necrosis ([6]; Liver): 0; HepSE_liver fatty ([7]; Liver): 0; HepSE_jaundice ([8]; Liver): 0; HepSE_bilirubinemia ([9]; Liver): 0; HepSE_cholecystitis ([10]; Liver): 0; HepSE_cirrhosis ([11]; Liver): 0; HepSE_hepatic failure ([12]; Liver): 0; HepSE_liver disease ([13]; Liver): 0; HepSE_hepatitis ([14]; Liver): 0
Clc1ccc2nsnc2c1NC1=NCCN1 [TIZANIDINE] |  |  |  |  |  |  |  |  |  |  |  |  |  |  | HepSE_liver function tests abnormal ([1]; Liver): 1; HepSE_cholelithiasis ([2]; Liver): 1; HepSE_hepatomegaly ([3]; Liver): 0; HepSE_elevated liver function tests ([4]; Liver): 0; HepSE_Combined Scores ([5]; Liver): 8; HepSE_hepatic necrosis ([6]; Liver): 1; HepSE_liver fatty ([7]; Liver): 0; HepSE_jaundice ([8]; Liver): 1; HepSE_bilirubinemia ([9]; Liver): 0; HepSE_cholecystitis ([10]; Liver): 0; HepSE_cirrhosis ([11]; Liver): 1; HepSE_hepatic failure ([12]; Liver): 1; HepSE_liver disease ([13]; Liver): 1; HepSE_hepatitis ([14]; Liver): 1
NC[C@H]1O[C@H](O[C@H]2[C@H](O)[C@@H](O[C@H]3O[C@H](CO)[C@@H](O)[C@H](N)[C@H]3O)[C@H](N)C[C@@H]2N)[C@H](N)C[C@@H]1O [TOBRAMYCIN] | 0 | 0 | 0 | 0 | 0 | 0 | 0 | 0 | 0 | 0 | 0 | 0 | 0 | 0 | 
Cc1ccc(S(=O)(=O)NC(=O)NN2CCCCCC2)cc1 [TOLAZAMIDE] | 0 | 0 | 0 | 0 | 1 | 0 | 0 | 1 | 0 | 0 | 0 | 0 | 0 | 0 | 
c1ccc(CC2=NCCN2)cc1 [TOLAZOLINE] | 0 | 0 | 0 | 0 | 1 | 0 | 0 | 0 | 0 | 0 | 0 | 0 | 0 | 1 | 
Cc1ccc(C(=O)c2cc(O)c(O)c([N+](=O)[O-])c2)cc1 [TOLCAPONE] |  |  |  |  |  |  |  |  |  |  |  |  |  |  | HepSE_liver function tests abnormal ([1]; Liver): 0; HepSE_cholelithiasis ([2]; Liver): 1; HepSE_hepatomegaly ([3]; Liver): 0; HepSE_elevated liver function tests ([4]; Liver): 0; HepSE_Combined Scores ([5]; Liver): 2; HepSE_hepatic necrosis ([6]; Liver): 0; HepSE_liver fatty ([7]; Liver): 0; HepSE_jaundice ([8]; Liver): 0; HepSE_bilirubinemia ([9]; Liver): 0; HepSE_cholecystitis ([10]; Liver): 1; HepSE_cirrhosis ([11]; Liver): 0; HepSE_hepatic failure ([12]; Liver): 0; HepSE_liver disease ([13]; Liver): 0; HepSE_hepatitis ([14]; Liver): 0
Cc1ccc(C(=O)c2ccc(CC(=O)O)n2C)cc1 [TOLMETIN] | 0 | 0 | 0 | 0 | 1 | 0 | 0 | 0 | 0 | 0 | 0 | 0 | 0 | 1 | 
Cc1ccc(O)c([C@H](CCN(C(C)C)C(C)C)c2ccccc2)c1 [TOLTERODINE] | 0 | 0 | 0 | 0 | 0 | 0 | 0 | 0 | 0 | 0 | 0 | 0 | 0 | 0 | 
